Patent US9302991B2, “Arylamide derivatives as TTX-S blockers” (RaQualia Pharma Inc., priority 2010, dated 2016)

Key:
[1] = target: T1, human Nav1.3 channels (Homo sapiens, UniProt Q9NY46); assay: FRET assay, human Nav1.3 (EFS on FDSS); assay type: cell-based; details: HEK293 cells expressing human Nav1.3, read-out: IC50 against Nav1.3
T1 construct: expressed in transfected cells; host or cells: HEK293
Description: The inhibitory activities of compounds against voltage gated sodium channels are determined by methodology well known in the art.
The ability of the aryl substituted carboxamide derivatives of the formula (I) to inhibit the NaV1.3, Nav1.7 and Nav1.5 channels is measured by Fluorescence Resonance Energy Transfer (FRET) assay and electrophysiology assay described below.
This screen is used to determine the effects of compounds on human Nav1.3, human Nav1.7, and human Nav1.5 channels, utilising electrical field stimulation (EFS) system in 96-well plate format on FDSS (Hamamatsu Photonics) platform. The change of membrane potential is monitored with FRET dye pair, oxonol (DiSBAC2(3)) and coumarin (CC2-DMPE).
Each HEK293 cells expressing human Nav1.3 channels and HEK293 cells expressing human Nav1.5 channels are grown in T225 flasks, in a 5% CO2 humidified incubator to about 80% confluence. Media composition consists of Dulbecco's Modified Eagle Medium (high glucose), 10% FCS, 100 units/mL Penicillin, 100 microgram/mL Streptomycin and 500 microgram/mL Geneticine.
Protocol: • Seed each cell lines (1×10^5 cells/well) into poly-D-lysine coated 96-well plates prior to experimentation. • Incubate at 37° C. in 5% CO2 for 24 hours. • Wash each well with assay buffer (140 mM NaCl, 4.5 mM KCl, 10 mM D-Glucose, 2 mM CaCl2, 1 mM MgCl2, 10 mM HEPES, pH 7.4 adjusted with NaOH) twice. • Add 1st loading solution containing 10 microM CC2-DMPE and 0.06% Pluronic F-127 in assay buffer. • Incubate the plate at room temperature in dark for 1 hour. • Remove 1st loading solution and added 2nd loading solution containing 15 microM DiSBAC2(3), 0.555 mM VABSC-1 and 0.004% Pluronic F-127 in assay buffer. • Place the plate under the dark at room temperature for 25 minutes. • Add compound solutions into the assay plate. • Set the assay plate in FDSS and placed an EFS device on the plate. • Measure EFS-induced fluorescent response by FDSS.
The data are analyzed and reported as normalized ratios of intensities measured at […]. The process of calculating these ratios is performed as follows:
This analysis is performed using a computerized specific program designed for FDSS generated data. Fluorescence ratio values are plotted using XLfit to determine an IC50 value for each compound.

[2] = target: T2, human Nav1.7 channels (Homo sapiens, UniProt Q15858); assay: FRET assay, human Nav1.7 (EFS on FDSS); assay type: cell-based; details: CHO cells expressing human Nav1.7, read-out: IC50 against Nav1.7
T2 construct: expressed in transfected cells; host or cells: CHO
Outline: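 CHO cells stably expressing the channel, loaded with CC2-DMPE (10 µM) then DiSBAC2(3) (15 µM) plus VABSC-1, in HEPES-buffered saline pH 7.4 at room temperature. Electrical field stimulation on FDSS; FRET ratio at 440 nm fitted for IC50.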

T2 sequence (Q15858 whole entry): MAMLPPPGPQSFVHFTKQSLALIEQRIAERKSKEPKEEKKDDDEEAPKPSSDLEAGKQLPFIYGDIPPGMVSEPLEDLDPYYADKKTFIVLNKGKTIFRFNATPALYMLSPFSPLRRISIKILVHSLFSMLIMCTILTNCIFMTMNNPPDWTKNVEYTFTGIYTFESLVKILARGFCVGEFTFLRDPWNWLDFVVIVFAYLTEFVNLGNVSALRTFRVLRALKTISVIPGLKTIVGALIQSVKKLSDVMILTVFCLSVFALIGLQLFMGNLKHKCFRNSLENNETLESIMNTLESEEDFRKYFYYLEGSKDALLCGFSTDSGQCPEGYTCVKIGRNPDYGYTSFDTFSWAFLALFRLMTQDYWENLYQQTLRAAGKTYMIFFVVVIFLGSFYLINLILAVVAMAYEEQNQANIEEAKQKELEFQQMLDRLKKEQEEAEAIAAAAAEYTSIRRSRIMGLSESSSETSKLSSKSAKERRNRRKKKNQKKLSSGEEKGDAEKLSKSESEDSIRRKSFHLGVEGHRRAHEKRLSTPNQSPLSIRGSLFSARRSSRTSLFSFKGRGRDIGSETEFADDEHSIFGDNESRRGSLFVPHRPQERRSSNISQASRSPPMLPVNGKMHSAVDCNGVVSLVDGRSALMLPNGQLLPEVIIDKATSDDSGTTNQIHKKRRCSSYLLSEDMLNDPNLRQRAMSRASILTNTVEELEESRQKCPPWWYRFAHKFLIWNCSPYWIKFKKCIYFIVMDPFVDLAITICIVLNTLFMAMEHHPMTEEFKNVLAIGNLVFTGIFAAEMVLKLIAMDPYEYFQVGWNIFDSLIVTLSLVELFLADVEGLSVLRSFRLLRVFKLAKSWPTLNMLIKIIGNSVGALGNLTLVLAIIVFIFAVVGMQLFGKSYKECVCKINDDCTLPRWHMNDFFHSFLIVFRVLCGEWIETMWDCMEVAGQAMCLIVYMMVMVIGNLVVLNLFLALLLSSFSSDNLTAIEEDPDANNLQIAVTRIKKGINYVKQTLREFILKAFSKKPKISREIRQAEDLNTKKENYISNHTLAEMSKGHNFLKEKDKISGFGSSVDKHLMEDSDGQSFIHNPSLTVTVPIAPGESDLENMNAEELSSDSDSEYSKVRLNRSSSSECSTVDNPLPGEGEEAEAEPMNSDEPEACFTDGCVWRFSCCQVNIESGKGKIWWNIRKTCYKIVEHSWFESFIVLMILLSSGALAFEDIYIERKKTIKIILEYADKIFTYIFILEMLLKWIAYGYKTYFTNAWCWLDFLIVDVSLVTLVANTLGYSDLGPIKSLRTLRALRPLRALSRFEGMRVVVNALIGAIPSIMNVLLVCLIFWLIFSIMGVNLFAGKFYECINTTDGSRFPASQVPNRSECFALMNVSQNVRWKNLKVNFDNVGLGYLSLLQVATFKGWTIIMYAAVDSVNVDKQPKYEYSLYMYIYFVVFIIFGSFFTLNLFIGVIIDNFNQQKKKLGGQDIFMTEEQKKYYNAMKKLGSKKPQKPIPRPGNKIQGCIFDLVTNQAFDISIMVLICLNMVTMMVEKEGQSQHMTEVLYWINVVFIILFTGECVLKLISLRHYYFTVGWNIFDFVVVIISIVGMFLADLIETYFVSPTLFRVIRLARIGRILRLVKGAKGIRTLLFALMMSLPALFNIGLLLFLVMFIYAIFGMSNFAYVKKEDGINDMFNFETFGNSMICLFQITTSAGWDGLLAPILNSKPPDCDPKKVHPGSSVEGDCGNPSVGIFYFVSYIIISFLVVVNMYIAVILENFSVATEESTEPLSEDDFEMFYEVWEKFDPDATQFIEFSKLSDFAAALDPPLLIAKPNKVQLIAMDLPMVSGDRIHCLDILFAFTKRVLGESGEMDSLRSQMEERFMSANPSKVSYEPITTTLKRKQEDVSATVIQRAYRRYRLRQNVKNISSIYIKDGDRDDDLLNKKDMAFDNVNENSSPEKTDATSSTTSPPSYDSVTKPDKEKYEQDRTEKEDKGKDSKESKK
T1 sequence (Q9NY46 whole entry): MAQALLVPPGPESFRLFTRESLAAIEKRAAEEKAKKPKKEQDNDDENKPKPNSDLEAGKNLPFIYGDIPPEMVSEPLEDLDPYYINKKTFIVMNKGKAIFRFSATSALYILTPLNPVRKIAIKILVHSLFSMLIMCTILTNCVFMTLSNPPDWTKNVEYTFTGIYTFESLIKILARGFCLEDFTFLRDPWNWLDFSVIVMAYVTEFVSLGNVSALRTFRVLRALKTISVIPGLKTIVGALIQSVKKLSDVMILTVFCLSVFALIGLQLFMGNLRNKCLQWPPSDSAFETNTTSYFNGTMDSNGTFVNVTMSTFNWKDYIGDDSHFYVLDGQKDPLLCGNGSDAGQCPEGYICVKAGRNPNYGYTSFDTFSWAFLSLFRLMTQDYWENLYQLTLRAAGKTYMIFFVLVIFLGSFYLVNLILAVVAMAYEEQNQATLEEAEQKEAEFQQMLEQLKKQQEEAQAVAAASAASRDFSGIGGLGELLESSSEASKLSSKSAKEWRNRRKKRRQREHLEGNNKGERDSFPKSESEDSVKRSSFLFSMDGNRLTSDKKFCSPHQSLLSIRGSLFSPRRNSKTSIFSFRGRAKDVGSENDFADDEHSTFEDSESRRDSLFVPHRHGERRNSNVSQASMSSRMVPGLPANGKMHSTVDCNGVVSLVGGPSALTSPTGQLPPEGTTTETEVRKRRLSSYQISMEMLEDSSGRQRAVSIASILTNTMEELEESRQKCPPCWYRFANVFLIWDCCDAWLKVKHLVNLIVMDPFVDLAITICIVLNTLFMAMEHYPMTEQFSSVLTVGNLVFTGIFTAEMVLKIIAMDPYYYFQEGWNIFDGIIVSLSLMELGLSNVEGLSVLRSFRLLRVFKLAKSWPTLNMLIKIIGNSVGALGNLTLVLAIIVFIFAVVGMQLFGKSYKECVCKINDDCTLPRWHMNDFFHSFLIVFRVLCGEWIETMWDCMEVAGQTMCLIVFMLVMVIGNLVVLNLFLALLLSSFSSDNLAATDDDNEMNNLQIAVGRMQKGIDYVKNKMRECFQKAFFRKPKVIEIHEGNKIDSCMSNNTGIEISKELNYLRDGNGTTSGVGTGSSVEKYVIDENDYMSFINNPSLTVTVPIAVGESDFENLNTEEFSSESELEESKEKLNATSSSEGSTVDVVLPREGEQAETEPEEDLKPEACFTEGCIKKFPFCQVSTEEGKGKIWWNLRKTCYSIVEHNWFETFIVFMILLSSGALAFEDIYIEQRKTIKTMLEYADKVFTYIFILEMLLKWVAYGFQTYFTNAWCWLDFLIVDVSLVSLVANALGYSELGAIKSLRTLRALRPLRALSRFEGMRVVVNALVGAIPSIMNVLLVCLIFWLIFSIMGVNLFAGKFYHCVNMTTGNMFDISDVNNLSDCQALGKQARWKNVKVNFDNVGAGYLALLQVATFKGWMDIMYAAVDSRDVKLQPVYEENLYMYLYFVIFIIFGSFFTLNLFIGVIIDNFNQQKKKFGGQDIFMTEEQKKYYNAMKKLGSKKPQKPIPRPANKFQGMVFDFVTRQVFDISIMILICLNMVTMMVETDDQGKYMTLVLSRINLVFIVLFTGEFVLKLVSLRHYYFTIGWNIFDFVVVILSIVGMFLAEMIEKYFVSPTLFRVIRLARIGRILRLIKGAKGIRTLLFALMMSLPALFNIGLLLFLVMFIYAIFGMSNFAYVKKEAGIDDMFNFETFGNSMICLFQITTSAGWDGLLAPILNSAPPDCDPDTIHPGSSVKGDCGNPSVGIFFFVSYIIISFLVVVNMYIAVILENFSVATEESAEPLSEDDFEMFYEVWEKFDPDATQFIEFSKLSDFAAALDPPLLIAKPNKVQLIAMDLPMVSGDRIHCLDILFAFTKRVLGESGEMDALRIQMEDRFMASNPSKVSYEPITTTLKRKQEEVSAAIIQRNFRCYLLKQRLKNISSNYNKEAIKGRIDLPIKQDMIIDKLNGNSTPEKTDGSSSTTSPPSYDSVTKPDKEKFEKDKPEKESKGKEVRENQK

Row | Structure (SMILES) | IC50 [1] | IC50 [2]
1 | CC(C)C(=O)Nc1cc(C(=O)NC(C)c2ccc(OCC(F)(F)F)nc2)ccn1 (single isomer, unassigned) [Example 8, 2-isobutyramido-N-(1-(6-(2,2,2-trifluoroethoxy)pyridin-3-yl)ethyl)isonicotinamide] | < 1 µM | < 1 µM
2 | Cc1cc(C(=O)NC(C)c2ccc(OCC(F)(F)F)nc2)cc(NC(=O)C(C)C)n1 (single isomer, unassigned) [Example 62, 2-isobutyramido-6-methyl-N-(1-(6-(2,2,2-trifluoroethoxy)pyridin-3-yl)ethyl)isonicotinamide] | < 1 µM | < 1 µM
3 | CCC(=O)Nc1cc(C(=O)NC(C)c2cnc(OCC(F)(F)F)c(Cl)c2)ccn1 (single isomer, unassigned) [Example 69, N-(1-(5-chloro-6-(2,2,2-trifluoroethoxy)pyridin-3-yl)ethyl)-2-propionamidoisonicotinamide] | < 1 µM | < 1 µM
4 | CC(=O)Nc1cc(C(=O)NC(C)c2cnc(OCC(F)(F)F)c(C)c2)ccn1 (single isomer, unassigned) [Example 85, 2-acetamido-N-(1-(5-methyl-6-(2,2,2-trifluoroethoxy)pyridin-3-yl)ethyl)isonicotinamide] | < 1 µM | < 1 µM
5 | CCC(=O)Nc1cc(C(=O)NC(C)c2cnc(OCC(F)(F)F)c(C)c2)ccn1 (single isomer, unassigned) [Example 87, N-(1-(5-methyl-6-(2,2,2-trifluoroethoxy)pyridin-3-yl)ethyl)-2-propionamidoisonicotinamide] | < 1 µM | < 1 µM
6 | Cc1cc(C(C)NC(=O)c2ccnc(NC(=O)C3CC3)c2)cnc1OCC(F)(F)F (single isomer, unassigned) [Example 89, 2-(cyclopropanecarboxamido)-N-(1-(5-methyl-6-(2,2,2-trifluoroethoxy)pyridin-3-yl)ethyl)isonicotinamide] | < 1 µM | < 1 µM
7 | CCC(=O)Nc1cc(C(=O)N[C@H](C)c2cccc(C(F)(F)F)c2)cc(C)n1 (single isomer, unassigned) [Example 126] | < 1 µM | < 1 µM
8 | CCC(=O)Nc1cc(C(=O)NC(C)c2cnc(OCC(F)(F)F)c(Cl)c2)cc(C)n1 (single isomer, unassigned) [Example 130, N-(1-(5-chloro-6-(2,2,2-trifluoroethoxy)pyridin-3-yl)ethyl)-2-methyl-6-propionamidoisonicotinamide] | < 1 µM | < 1 µM
9 | CCC(=O)Nc1cc(C(=O)NC(C)c2cnc(OCC(F)(F)F)c(C)c2)cc(C)n1 (single isomer, unassigned) [Example 132, 2-methyl-N-(1-(5-methyl-6-(2,2,2-trifluoroethoxy)pyridin-3-yl)ethyl)-6-propionamidoisonicotinamide] | < 1 µM | < 1 µM
10 | CCC(=O)Nc1cc(C(=O)NC(C)c2cccc(OC(F)(F)F)c2)cc(C)n1 (single isomer, unassigned) [Example 134, 2-methyl-6-propionamido-N-(1-(3-(trifluoromethoxy)phenyl)ethyl)isonicotinamide] | < 1 µM | < 1 µM
11 | CCC(=O)Nc1cc(C(=O)NC(C)c2ccc(OCC(F)(F)F)cc2)cc(C)n1 (single isomer, unassigned) [Example 136, 2-methyl-6-propionamido-N-(1-(4-(2,2,2-trifluoroethoxy)phenyl)ethyl)isonicotinamide] | < 1 µM | < 1 µM
12 | CCC(=O)Nc1cc(C(=O)NC(C)c2cccc(OCC(F)(F)F)n2)cc(C)n1 (single isomer, unassigned) [Example 139, 2-methyl-6-propionamido-N-(1-(6-(2,2,2-trifluoroethoxy)pyridin-2-yl)ethyl)isonicotinamide] | < 1 µM | < 1 µM
13 | CCC(=O)Nc1nccc(C(=O)NC(C)c2cnc(OCC(F)(F)F)c(C)c2)n1 (single isomer, unassigned) [Example 223, N-(1-(5-methyl-6-(2,2,2-trifluoroethoxy)pyridin-3-yl)ethyl)-2-propionamidopyrimidine-4-carboxamide] | < 1 µM | < 1 µM
14 | Cc1cc(C(C)NC(=O)c2ccnc(NC(=O)C3CC3)n2)cnc1OCC(F)(F)F (single isomer, unassigned) [Example 224, 2-(cyclopropanecarboxamido)-N-(1-(5-methyl-6-(2,2,2-trifluoroethoxy)pyridin-3-yl)ethyl)pyrimidine-4-carboxamide] | < 1 µM | < 1 µM
15 | Cc1cc(C(C)NC(=O)c2ccnc(NC(=O)C(C)C)n2)cnc1OCC(F)(F)F (single isomer, unassigned) [Example 225, 2-isobutyramido-N-(1-(5-methyl-6-(2,2,2-trifluoroethoxy)pyridin-3-yl)ethyl)pyrimidine-4-carboxamide] | < 1 µM | < 1 µM
16 | Cc1cc(C(C)NC(=O)c2ccnc(NC(=O)C3CCC3)n2)cnc1OCC(F)(F)F (single isomer, unassigned) [Example 226, 2-(cyclobutanecarboxamido)-N-(1-(5-methyl-6-(2,2,2-trifluoroethoxy)pyridin-3-yl)ethyl)pyrimidine-4-carboxamide] | < 1 µM | < 1 µM
17 | CCC(=O)Nc1nc(C)cc(C(=O)NC(C)c2cnc(OCC(F)(F)F)c(C)c2)n1 (single isomer, unassigned) [Example 227, 6-methyl-N-(1-(5-methyl-6-(2,2,2-trifluoroethoxy)pyridin-3-yl)ethyl)-2-propionamidopyrimidine-4-carboxamide] | < 1 µM | < 1 µM
18 | Cc1cc(C(=O)NC(C)c2cnc(OCC(F)(F)F)c(C)c2)nc(NC(=O)C2CC2)n1 (single isomer, unassigned) [Example 228, 2-(cyclopropanecarboxamido)-6-methyl-N-(1-(5-methyl-6-(2,2,2-trifluoroethoxy)pyridin-3-yl)ethyl)pyrimidine-4-carboxamide] | < 1 µM | < 1 µM
19 | Cc1cc(C(=O)NC(C)c2cnc(OCC(F)(F)F)c(C)c2)nc(NC(=O)C(C)C)n1 (single isomer, unassigned) [Example 229, 2-isobutyramido-6-methyl-N-(1-(5-methyl-6-(2,2,2-trifluoroethoxy)pyridin-3-yl)ethyl)pyrimidine-4-carboxamide] | < 1 µM | < 1 µM
20 | CC(=O)Nc1nc(C)cc(C(=O)NC(C)c2cnc(OCC(F)(F)F)c(C)c2)n1 (single isomer, unassigned) [Example 235, 2-acetamido-6-methyl-N-(1-(5-methyl-6-(2,2,2-trifluoroethoxy)pyridin-3-yl)ethyl)pyrimidine-4-carboxamide] | < 1 µM | < 1 µM
21 | Cc1cc(C(=O)NCc2cnc(OCC(F)(F)F)c(Cl)c2)cc(NC(=O)CC2CC2)n1 [Example 956, N-((5-chloro-6-(2,2,2-trifluoroethoxy)pyridin-3-yl)methyl)-2-(2-cyclopropylacetamido)-6-methylisonicotinamide] | < 1 µM | 
22 | Cc1cc(C(=O)NCc2cnc(OCC(F)(F)F)cc2C)cc(NC(=O)CC2CC2)n1 [Example 958, 2-(2-cyclopropylacetamido)-6-methyl-N-((4-methyl-6-(2,2,2-trifluoroethoxy)pyridin-3-yl)methyl)isonicotinamide] | < 1 µM | 
23 | COc1nc(OCC(F)(F)F)ccc1CNC(=O)c1cc(C)nc(NC(=O)CC2CC2)c1 [Example 960, 2-(2-cyclopropylacetamido)-N-((2-methoxy-6-(2,2,2-trifluoroethoxy)pyridin-3-yl)methyl)-6-methylisonicotinamide] | < 1 µM | 
24 | Cc1cc(C(=O)NCc2cccc(C(F)(F)F)c2)cc(NC(=O)CC2CC2)n1 [Example 961, 2-(2-cyclopropylacetamido)-6-methyl-N-(3-(trifluoromethyl)benzyl)isonicotinamide] | < 1 µM | 
25 | CC(=O)Nc1cc(C(=O)NCc2ccc(OC(F)(F)F)c(Cl)c2)ccn1 [Example 967, 2-acetamido-N-(3-chloro-4-(trifluoromethoxy)benzyl)isonicotinamide] | < 1 µM | 
26 | CCC(=O)Nc1cc(C(=O)NCc2ccc(OC(F)(F)F)c(Cl)c2)ccn1 [Example 968, N-(3-chloro-4-(trifluoromethoxy)benzyl)-2-propionamidoisonicotinamide] | < 1 µM | 
